Where only a bound is given, the exact number is not on record here.

The assay relates to U87MG cells. Kind of assay: Cytotoxicity assay (cell viability, CellTiter 96 Aqueous MTS). The format is cell-based. Conditions: Homo sapiens, U-87 MG, 72 h, 72 hours incubation, starting concentration 50 uM, 9 point half log dilution, average where tested repeatedly. The protocol:
Example 3: Cytotoxicity Assay
U87MG cells were plated at a density of 7×10^3 cells/well and allowed to seed overnight. Cells were then treated with compounds from Table 1 or CMPD-1 (4-(2′-fluoro-[1,1′-biphenyl]-4-yl)-N-(4-hydroxyphenyl)butanamide as a positive control) were added to cells at a starting concentration of 50 uM, with a 9 point half log dilution, and incubated for 72 hours prior to viability determination. IC50 values were calculated from cell viability as measured using the CellTiter 96® Aqueous MTS reagent from Promega©, and the results are shown in Table 2.
On to `O=C(CCCc1ccc(-c2ccccc2F)cc1)Nc1ccc2[nH]ncc2c1` [Compound 4, 4-(2′-fluoro-[1,1′-biphenyl]-4-yl)-N-(1H-indazol-5-yl)butanamide], for which the 50% inhibitory concentration (IC50) lay in the range of 1 to 5 µM.
The figure for `O=C(CCCc1ccc(-c2ccccc2F)cc1)Nc1ccc2[nH]ccc2c1` [Compound 6, 4-(2′-fluoro-[1,1′-biphenyl]-4-yl)-N-(1H-indol-5-yl)butanamide] is 1 to 5 µM.
The compound `O=C(CCCc1ccc(-c2ccccc2F)cc1)Nc1ccc(O)nc1` [Compound 8, 4-(2′-fluoro-[1,1′-biphenyl]-4-yl)-N-(6-hydroxypyridin-3-yl)butanamide] gave an IC50 greater than 5 µM.
To `O=C(CCCc1ccc(-c2ccccc2F)cc1)Nc1cccnc1` [Compound 37, 4-(2′-fluoro-[1,1′-biphenyl]-4-yl)-N-(pyridin-3-yl)butanamide] belongs 0.501 to 1 µM; to `O=C(CCCc1ccc(-c2ccccc2F)cc1)Nc1nccs1` [Compound 38, 4-(2′-fluoro-[1,1′-biphenyl]-4-yl)-N-(thiazol-2-yl)butanamide], greater than 5 µM.
For the compound `COc1ccc(NC(=O)CCCc2ccc(-c3ccccc3F)cc2)cn1` [Compound 39, 4-(2′-fluoro-[1,1′-biphenyl]-4-yl)-N-(6-methoxypyridin-3-yl)butanamide], the IC50 was greater than 5 µM.
To `O=C(CCCc1ccc(-c2ccccc2F)cc1)Nc1ccccn1` [Compound 40, 4-(2′-fluoro-[1,1′-biphenyl]-4-yl)-N-(pyridin-2-yl)butanamide] belongs greater than 5 µM; to `O=C(CCCc1ccc(-c2ccccc2F)cc1)NCc1cccnc1` [Compound 41, 4-(2′-fluoro-[1,1′-biphenyl]-4-yl)-N-(pyridin-3-ylmethyl)butanamide], greater than 5 µM; to `O=C(CCCc1ccc(-c2ccccc2F)cc1)NCc1ccncc1` [Compound 42, 4-(2′-fluoro-[1,1′-biphenyl]-4-yl)-N-(pyridin-4-ylmethyl)butanamide], 1 to 5 µM.
`O=C(CCCc1ccc(-c2ccccc2F)cc1)NCc1ccccn1` [Compound 43, 4-(2′-fluoro-[1,1′-biphenyl]-4-yl)-N-(pyridin-2-ylmethyl)butanamide] had a 50% inhibitory concentration (IC50) of 1 to 5 µM.
Compound `COc1ccc(CNC(=O)CCCc2ccc(-c3ccccc3F)cc2)cc1` [Compound 44, 4-(2′-fluoro-[1,1′-biphenyl]-4-yl)-N-(4-methoxybenzyl)butanamide] had an IC50 of 0.501 to 1 µM.
`Cc1ccc(NC(=O)CCCc2ccc(-c3ccccc3F)cc2)cn1` [Compound 45, 4-(2′-fluoro-[1,1′-biphenyl]-4-yl)-N-(6-methylpyridin-3-yl)butanamide]: the IC50 is less than 0.5 µM.
The figure for `O=C(CCCc1ccc(-c2ccccc2F)cc1)Nc1cn[nH]c1` [Compound 47, 4-(2′-fluoro-[1,1′-biphenyl]-4-yl)-N-(1H-pyrazol-4-yl)butanamide] is greater than 5 µM.
To `Cn1cc(CNC(=O)CCCc2ccc(-c3ccccc3F)cc2)cn1` [Compound 48, 4-(2′-fluoro-[1,1′-biphenyl]-4-yl)-N-((1-methyl-1H-pyrazol-4-yl)methyl)butanamide] belongs 1 to 5 µM; to `O=C(CCCc1ccc(-c2ccccc2F)cc1)NCC1CC1` [Compound 50, N-(cyclopropylmethyl)-4-(2′-fluoro-[1,1′-biphenyl]-4-yl)butanamide], 1 to 5 µM; to `O=C(CCCc1ccc(-c2ccccc2F)cc1)Nc1ccc(C(F)(F)F)nc1` [Compound 51, 4-(2′-fluoro-[1,1′-biphenyl]-4-yl)-N-(6-(trifluoromethyl)pyridin-3-yl)butanamide], greater than 5 µM.
In the case of `CN(C(=O)CCCc1ccc(-c2ccccc2F)cc1)c1cccnc1` [Compound 52, 4-(2′-fluoro-[1,1′-biphenyl]-4-yl)-N-methyl-N-(pyridin-3-yl)butanamide], the 50% inhibitory concentration (IC50) was greater than 5 µM.
The figure for `O=C(CCCc1ccc(-c2ccccc2F)cc1)Nc1ccc2c(c1)OCC(=O)N2` [Compound 53, 4-(2′-fluoro-[1,1′-biphenyl]-4-yl)-N-(3-oxo-3,4-dihydro-2H-benzo[b][1,4]oxazin-7-yl)butanamide] is 0.501 to 1 µM; for `O=C(CCCc1ccc(-c2ccccc2F)cc1)NC1CCC(F)(F)CC1` [Compound 54, N-(4,4-difluorocyclohexyl)-4-(2′-fluoro-[1,1′-biphenyl]-4-yl)butanamide] it is greater than 5 µM.
The figure for `O=C(CCCc1ccc(-c2ccccc2F)cc1)NC1COC1` [Compound 55, 4-(2′-fluoro-[1,1′-biphenyl]-4-yl)-N-(oxetan-3-yl)butanamide] is 1 to 5 µM.
To `O=C(CCCc1ccc(-c2ccccc2F)cc1)Nc1ccc2[nH]c(=O)[nH]c2c1` [Compound 58, 4-(2′-fluoro-[1,1′-biphenyl]-4-yl)-N-(2-oxo-2,3-dihydro-1H-benzo[d]imidazol-5-yl)butanamide] belongs greater than 5 µM; to `O=C(CCCc1ccc(-c2ccccc2F)cc1)Nc1ccc2c(c1)CNC2=O` [Compound 59, 4-(2′-fluoro-[1,1′-biphenyl]-4-yl)-N-(1-oxoisoindolin-5-yl)butanamide], greater than 5 µM.
Turning to `O=C(CCCc1ccc(-c2ccccc2F)cc1)NC1CCC(O)CC1` (stereo not drawn) [Compound 62, 4-(2′-fluoro-[1,1′-biphenyl]-4-yl)-N-(4-hydroxycyclohexyl)butanamide], the IC50 was greater than 5 µM.
The figure for `O=C(CCCc1ccc(-c2ccccc2F)cc1)Nc1ccon1` [Compound 63, 4-(2′-fluoro-[1,1′-biphenyl]-4-yl)-N-(isoxazol-3-yl)butanamide] is greater than 5 µM.
The figure for `O=C(NCCCc1ccc(-c2ccccc2F)cc1)c1cccnc1` [Compound 64, N-(3-(2′-fluoro-[1,1′-biphenyl]-4-yl)propyl)nicotinamide] is less than 0.5 µM; for `O=C(NCCCc1ccc(-c2ccccc2F)cc1)c1cccnn1` [Compound 65, N-(3-(2′-fluoro-[1,1′-biphenyl]-4-yl)propyl)pyridazine-3-carboxamide] it is greater than 5 µM.
To `O=C(NCCCc1ccc(-c2ccccc2F)cc1)c1cn[nH]c1` [Compound 66, N-(3-(2′-fluoro-[1,1′-biphenyl]-4-yl)propyl)-1H-pyrazole-4-carboxamide] belongs greater than 5 µM; to `O=C(NCCCc1ccc(-c2ccccc2F)cc1)c1cncnc1` [Compound 67, N-(3-(2′-fluoro-[1,1′-biphenyl]-4-yl)propyl)pyrimidine-5-carboxamide], less than 0.5 µM; to `O=C(NCCCc1ccc(-c2ccccc2F)cc1)c1ccc2[nH]nnc2c1` [Compound 70, N-(3-(2′-fluoro-[1,1′-biphenyl]-4-yl)propyl)-1H-benzo[d][1,2,3]triazole-5-carboxamide], greater than 5 µM.
`Cc1ccc(C(=O)NCCCc2ccc(-c3ccccc3F)cc2)cn1` [Compound 71, N-(3-(2′-fluoro-[1,1′-biphenyl]-4-yl)propyl)-6-methylnicotinamide] showed an IC50 of less than 0.5 µM.
The figure for `O=C(NCCCc1ccc(-c2ccccc2F)cc1)c1ccc2[nH]ncc2c1` [Compound 73, N-(3-(2′-fluoro-[1,1′-biphenyl]-4-yl)propyl)-1H-indazole-5-carboxamide] is 1 to 5 µM; for `O=C(NCCCc1ccc(-c2ccccc2F)cc1)c1ccc2[nH]ccc2c1` [Compound 74, N-(3-(2′-fluoro-[1,1′-biphenyl]-4-yl)propyl)-1H-indole-5-carboxamide] it is 0.501 to 1 µM; for `O=C(NCCCc1ccc(-c2ccccc2F)cc1)C1CC(F)(F)C1` [Compound 75, 3,3-difluoro-N-(3-(2′-fluoro-[1,1′-biphenyl]-4-yl)propyl)cyclobutane-1-carboxamide] it is greater than 5 µM.
To `O=C(NCCCc1ccc(-c2ccccc2F)cc1)c1cnccn1` [Compound 76, N-(3-(2′-fluoro-[1,1′-biphenyl]-4-yl)propyl)pyrazine-2-carboxamide] belongs greater than 5 µM; to `O=C(NCCCc1ccc(-c2ccccc2F)cc1)[C@H]1C[C@@H](O)C1` [Compound 77, (1s,3s)-N-(3-(2′-fluoro-[1,1′-biphenyl]-4-yl)propyl)-3-hydroxycyclobutane-1-carboxamide], greater than 5 µM.
To `O=C(NCCCc1ccc(-c2ccccc2F)cc1)c1ccc2cn[nH]c2c1` [Compound 79, N-(3-(2′-fluoro-[1,1′-biphenyl]-4-yl)propyl)-1H-indazole-6-carboxamide] belongs greater than 5 µM; to `Cc1cncc(C(=O)NCCCc2ccc(-c3ccccc3F)cc2)c1` [Compound 80, N-(3-(2′-fluoro-[1,1′-biphenyl]-4-yl)propyl)-5-methylnicotinamide], 1 to 5 µM; to `O=C(NCCCc1ccc(-c2ccccc2F)cc1)C1=CN2C=CNC2C=C1` (stereo not drawn) [Compound 82, N-(3-(2′-fluoro-[1,1′-biphenyl]-4-yl)propyl)-1,8a-dihydroimidazo[1,2-a]pyridine-6-carboxamide], greater than 5 µM.
Compound `O=C(NCCCc1ccc(-c2ccccc2F)cc1)c1ccc(C(F)(F)F)nc1` [Compound 83, N-(3-(2′-fluoro-[1,1′-biphenyl]-4-yl)propyl)-6-(trifluoromethyl)nicotinamide] had an IC50 of 1 to 5 µM.
The figure for `O=C(NCCCc1ccc(-c2ccccc2F)cc1)c1nc2ccccc2[nH]1` [Compound 84, N-(3-(2′-fluoro-[1,1′-biphenyl]-4-yl)propyl)-1H-benzo[d]imidazole-2-carboxamide] is greater than 5 µM; for `O=C(NCCCc1ccc(-c2ccccc2F)cc1)c1cncc(C(F)(F)F)c1` [Compound 85, N-(3-(2′-fluoro-[1,1′-biphenyl]-4-yl)propyl)-5-(trifluoromethyl)nicotinamide] it is 1 to 5 µM.
The figure for `CN1CCC(C(=O)NCCCc2ccc(-c3ccccc3F)cc2)CC1` [Compound 87, N-(3-(2′-fluoro-[1,1′-biphenyl]-4-yl)propyl)-1-methylpiperidine-4-carboxamide] is greater than 5 µM.
